From patent US20150011393A1, “METHOD FOR INTRODUCING FLORIGEN” (priority 2012, published 2015)

Key:
[1] = tested on: Rice radicles, cultured rice cells (rice protoplasts), tobacco leaves, and Arabidopsis leaves; assay: Quantitative efficiency of introduction of GFP by eight cell-penetrating peptides in four tissues; type: cell-based; settings: rank among eight cell-penetrating peptides over four tissues (32 treatment groups)
Procedure: Eight kinds of cell-penetrating peptides shown in Table 1 above and GFP were separately mixed in PBS (137 mM NaCl, 2.7 mM KCl, 10 mM Na2HPO4, 1.76 mM KH2PO4) (pH 7.4) so as to achieve a final concentration of 50 μM, and rice radicles were immersed in the mixtures. The eight kinds of cell-penetrating peptides are typical peptides selected from arginine-rich peptides, amphiphilic peptides, and peptides each having an RXLR sequence, and were prepared by chemical synthesis.
The immersion treatment was carried out for 16 hours at room temperature, followed by low-temperature treatment at 4° C. for 4 hours. The samples were washed until fluorescence was not observed in a negative control group treated with GFP alone, and cells were counted under a fluorescence stereomicroscope to calculate ratios of fluorescent cells.
(2) The efficiency of introduction of GFP by the eight kinds of cell-penetrating peptides was examined quantitatively in the same manner as in (1) above. Rice radicles (FIG. 2a), cultured rice cells (rice protoplasts) (FIG. 2b), tobacco leaves (FIG. 2c), and Arabidopsis leaves (FIG. 2d) were used as tissues to be examined. A total of 32 treatment groups were evaluated.

[2] = Search for florigen capable of high level expression (soluble fractions); settings: recombinant expression of mutated Hd3a
Description: FIG. 5 is a photograph showing mHd3a-1 separated and detected by SDS-PAGE through a conventional method.

[3] = tested on: flower-bud formation marker gene OsMADS15; assay: Florigen function in transient expression system for protoplasts (with OsFD1), RT-PCR; type: cell-based; settings: transiently expressed with OsFD1 in protoplasts; compared among five mutated Hd3a's
Description: (2) The florigen functions were examined for mutated Hd3a partial peptides of mHd3a-2F (full-length, having C43L, C109S, and C166S amino acid substitutions) and m-Hd3a-3F (full-length, having K31A, Y136A, and W140A amino acid substitutions) in addition to the mutated Hd3a's examined in (1) above, i.e., mHd3a-1, mHd3a-2T, and mHd3a-3T. The as say system used is a transient expression system for protoplasts. When the mutated Hd3a and a transcription factor OsFD1 are transiently expressed in protoplasts in this system, a flower-bud formation marker gene OsMADS15 is transcriptionally activated if the Hd3a is functional. The transient expression system for protoplasts was constructed according to the method described in Non Patent Literature 2. In addition, the expression of the OsMADS15 gene was examined by RT-PCR method according to the method described in Non Patent Literature 2.

rice shoot apical tissue = assay: Introduction of FITC-labeled florigen into cell of rice shoot apical tissue; type: cell-based; settings: florigen 50 μM, R9 500 μM in PBS (pH 7.4)
Procedure: (§1) The mHd3a-1 prepared by high level expression in Example 2 was labeled with a fluorochrome FITC. Subsequently, a rice shoot apical tissue was exposed under a stereomicroscope, and the cell-penetrating peptide and the florigen were mixed and used for treatment of the plant tissue in the same manner as in Example 1. A mixed solution was prepared by adding the florigen at a final concentration of 50 μM and the cell-penetrating peptide R9 at a final concentration of 500 μM in PBS (pH 7.4). The mixed solution was added dropwise to the exposed shoot apical tissue to bring the mixed solution into contact with the tissue. The tissue was treated for 16 hours at room temperature.

[4] = tested on: shoot apical tissues of corn; assay: Introduction of florigen into cells of shoot apical tissue of corn; type: cell-based; settings: mixed solution with R9 as in Example 3
Procedure: as §1
(§2) In the same manner as in Example 3, the mixed solution of the cell-penetrating peptide and the florigen was added dropwise to shoot apical tissues of corn and Arabidopsis to treat the tissues.

[5] = tested on: shoot apical tissues of Arabidopsis; assay: Introduction of florigen into cells of shoot apical tissue of Arabidopsis; type: cell-based; settings: mixed solution with R9 as in Example 3
Procedure: as §1, §2

[6] = tested on: flower-bud formation marker gene (OsMADS15 gene); assay: Expression of flower-bud formation marker gene after direct introduction of florigen, wild-type rice, real-time quantitative RT-PCR; type: in vivo; settings: wild-type rice shoot apical tissue; introduced with R9 as in Example 3
Description: (§3) (1) A rice shoot apical tissue into which the florigen was introduced was isolated in the same manner as in Example 3. RNA was extracted from the rice shoot apical tissue by a conventional method, and expression of a flower-bud formation marker gene (OsMADS15 gene) was examined by real-time quantitative RT-PCR (see Non Patent Literature 2 for the method).

[7] = tested on: flower-bud formation marker gene; assay: Expression of flower-bud formation marker gene after direct introduction of florigen, rice with all florigens inactivated (Hd3a-RFT1 double RNAi); type: in vivo; settings: introduced with R9 as in Example 3
Description: as §3
(2) Further, rice in which all florigens were inactivated (Hd3a-RFT1 double RNAi) (Komiya et al. (2008) Development 135:767-774) was subjected to the same experiment as in (1).

Arabidopsis = assay: Flowering-promoting effect in Arabidopsis plant body after direct introduction of florigen; type: in vivo
Procedure: A mixed solution prepared by mixing the florigen mHd3a-1 and the cell-penetrating peptide R9 in ten-times diluted PBS in the same manner as in Example 3 was used for treatment of seedling of Arabidopsis at the time of cotyledon expansion about three days after seeding. It should be noted that the shoot apices in seedling of Arabidopsis was exposed at the time of cotyledon expansion. The treatment was carried out at room temperature for 2 days. After that, the mixed solution was washed, and the plants were cultivated on the MS medium under a short-day condition (day length: 10 hours) for from 30 to 40 days to examine the timing of the flowering. The examination condition of the start of the flowering was defined as the start of bolting or a state where differentiation of flower buds was visually observed, and whether the flowering was early or late was evaluated based on the number of rosette leaves at the time when the state described above was achieved. In the case of Arabidopsis, rosette leaves are usually extracted, and the extraction of the rosette leaves is stopped when the flowering is started. When the flowering is started in the early stage, the number of the leaves is small because only a small number of the rosette leaves can be extracted, while when it takes a long time before the flowering is started, the number of the leaves is large because many rosette leaves can be extracted.
FIG. 12 and FIG. 13 show the results. FIG. 12 are photographs taken on day 14 and day 21, when the cultivation start date under the short-day condition is defined as day 0. The enlarged view is one obtained by enlarging the area enclosed by a dashed line in the photograph of a flower bud of an individual treated with the mixed solution of mHd3a-1 and R9, which was taken on day 21. In addition, the numbers in the graph of FIG. 13 represent numbers of individuals that achieved the flowering at each number of leaves. […]

[8] = tested on: APETALA1 (AP1) gene, FRUITFULL (FUL) gene, and SQUAMOSA PROMOTER BINDING-LIKES (SPL3) gene; assay: Induction of expression of flowering-responsive genes in Arabidopsis after direct introduction of florigen, real-time quantitative RT-PCR; type: in vivo; settings: shoot apical tissue after 2 weeks cultivation
Description: The florigen was introduced directly into Arabidopsis in the same manner as in Example 6, and then the plants were cultivated for 2 weeks, followed by collection of a shoot apical tissue from each individual. RNA was extracted from the shoot apical tissue collected from each individual, and cDNA was synthesized based on a reverse transcription reaction. After that, the expression levels of APETALA1 (AP1) gene, FRUITFULL (FUL) gene, and SQUAMOSA PROMOTER BINDING-LIKES (SPL3) gene were examined by real-time quantitative RT-PCR (see Yamaguchi et al. Dev. Cell 17:268-278 (2009)).

[9] = tested on: rice root epidermal cells; assay: Effect of molar ratio of cell-penetrating peptide to protein on efficiency of introduction of GFP; type: cell-based
Procedure: (3) The effect of the molar ratios of the cell-penetrating peptides to the protein on the efficiency of introduction of the protein was examined. The molar ratios of the cell-penetrating peptides (Avr1b and R9) to the protein were changed to 0.01, 0.1, 1, and 10, and the efficiency of introduction of GFP into rice root epidermal cells was evaluated.

Tat: cell-penetrating peptide YGRKKRRQRRR (SEQ ID NO: 2), arginine-rich, derived from Tat protein of HIV virus (Membrane-permeable peptide Tat)
comprehensive efficiency of introduction of GFP [1]: second highest

mHd3a-1: mutated rice Hd3a, full-length, having K31A and E57A amino acid substitutions
high level expression and soluble fractions [2]: capable of high level expression and providing soluble fractions | activation of transcription of the OsMADS15 gene [3]: most desirably activated | localization in the cell of the rice shoot apical tissue (rice shoot apical tissue; 16 hours): localized accurately in the nucleus | introduction into the rice shoot apical tissue (rice shoot apical tissue; 16 hours at room temperature): introduced efficiently | introduction into the shoot apical tissue of corn [4]: introduced efficiently | localization in the cell of the shoot apical tissue of corn [4]: localized accurately in the nucleus | introduction into the shoot apical tissue of Arabidopsis [5]: introduced efficiently | localization in the cell of the shoot apical tissue of Arabidopsis [5]: localized accurately in the nucleus | expression of the flower-bud formation marker gene (OsMADS15 gene) [6]: can activate expression | expression of the flower-bud formation marker gene [7]: could activate the expression | plants able to start the flowering when the number of the leaves was 14 or less (Arabidopsis; Arabidopsis seedlings treated 2 days with mixed solution with R9 in ten-times diluted PBS, short-day condition 30 to 40 days): about 30% | individuals treated in which induction of the expression was observed [8]: about 30% | expression of AP1, FUL and SPL3 genes ([8]; eIF4a internal standard): activated the expression of the three genes

mHd3a-2T: partial peptide of Hd3a, amino acids at positions from 6 to 170, having C43L, C109S, and C166S substitutions
high level expression and soluble fractions [2]: capable of high level expression and providing soluble fractions

mHd3a-3T: partial peptide of Hd3a, amino acids at positions from 8 to 170, having K31A, Y136A, and W140A substitutions
high level expression and soluble fractions [2]: capable of high level expression and providing soluble fractions

mHR: mutated Hd3a incapable of being bound to a receptor (Hd3a R64D F103A R132D), used mixed with R9
effect of promoting the start of the flowering (Arabidopsis; used instead of mHd3a-1 in mixed solution with R9, short-day condition): not observed

R9: cell-penetrating peptide RRRRRRRRR (SEQ ID NO: 7), arginine-rich, artificially designed sequence (Membrane-permeable peptide R9)
comprehensive efficiency of introduction of GFP [1]: second highest | change of introduction efficiency as molar ratio increased in the order of 0.01, 0.1, 1, and 10 ([9]; mixed solution of cell-penetrating peptide and GFP): the introduction efficiency increased | increase of efficiency of introduction of GFP, molar ratio 10 versus molar ratio 1 ([9]; molar ratio of cell-penetrating peptide to protein 10 compared to 1): 2.5 times | start of the flowering when the number of the leaves was 14 or less (almost all the plants) (Arabidopsis; R9 alone, short-day condition): did not start the flowering
